Values of other authors as cited in patent US10507185B2, “Composite structural material and pharmaceutical composition thereof” (INNOVACO PHARMACEUTICALS, INC, priority 2013, dated 2019).

pKa value: 4.6
SMILES: CC(C)n1c(/C=C/C(O)CC(O)CC(=O)O)c(-c2ccc(F)cc2)c2ccccc21 (stereo not shown) [Fluvastatin, fluvastatin]
